Test results published in ChEMBL document CHEMBL1201862, “PubChem BioAssay data set” (2004).
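Tested at 5 concentrations; 48 h exposure; 96-well plates; endpoints linearly interpolated, else capped at highest concentration. At the GI50, growth is halved.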 Active and inactive are the calls of the source. Cut-off read from the data, not from the text of the source: active = GI50 up to about 1.1 µM and inactive = higher.

What was measured:
Experiment in all cases: NCI anticancer screen, dose series, 48 h
OVCAR-5 = system: OVCAR-5
KM12 = system: KM12
DMS-273 = system: DMS-273
U-251 = system: U-251
SF-295 = system: SF-295
CCRF-CEM = system: CCRF-CEM
UO-31 = system: UO-31
NCI-H460 = system: NCI-H460
RXF 393 = system: RXF 393
A549 = system: A549
NCI-H226 = system: NCI-H226
HL-60 = system: HL-60
NCI-H522 = system: NCI-H522
K562 = system: K562
HCT-116 = system: HCT-116
SW-620 = system: SW-620
SNB-75 = system: SNB-75
OVCAR-8 = system: OVCAR-8
M19-MEL = system: M19-MEL
HOP-92 = system: HOP-92
HCT-15 = system: HCT-15
HCC 2998 = system: HCC 2998
SNB-78 = system: SNB-78
MCF7 = system: MCF7
SK-MEL-2 = system: SK-MEL-2
LOX IMVI = system: LOX IMVI
SNB-19 = system: SNB-19
Malme-3M = system: Malme-3M
A498 = system: A498
HOP-62 = system: HOP-62
KM-20L2 = system: KM-20L2
NCI-H23 = system: NCI-H23
UACC-257 = system: UACC-257
EKVX = system: EKVX
SK-OV-3 = system: SK-OV-3
UACC-62 = system: UACC-62
HOP-18 = system: HOP-18
XF498 = system: XF498
SF-268 = system: SF-268
MOLT-4 = system: MOLT-4
SK-MEL-5 = system: SK-MEL-5
DLD-1 = system: DLD-1
RPMI-8226 = system: RPMI-8226
OVCAR-3 = system: OVCAR-3
COLO 205 = system: COLO 205
SK-MEL-28 = system: SK-MEL-28
OVCAR-4 = system: OVCAR-4
NCI/ADR-RES = system: NCI/ADR-RES
CAKI-1 = system: CAKI-1
HT-29 = system: HT-29
SF-539 = system: SF-539
SN12C = system: SN12C
IGROV-1 = system: IGROV-1
LXFL 529 = system: LXFL 529
TK-10 = system: TK-10
786-0 = system: 786-0
M14 = system: M14
DMS-114 = system: DMS-114
ACHN = system: ACHN
MDA-MB-231 = system: MDA-MB-231
MDA-N = system: MDA-N
SR = system: SR
Hs-578T = system: Hs-578T

Compound: Cc1c2ccncc2c(C)c2c1[nH]c1ccc(OCCN(C)C)cc12
- GI50 (OVCAR-5): 0.433 µM (active)
- GI50 (KM12): 0.105 µM (active)
- GI50 (DMS-273): 0.0998 µM (active)
- GI50 (U-251): 0.209 µM (active)
- GI50 (SF-295): 0.125 µM (active)
- GI50 (CCRF-CEM): 0.024 µM (active)
- GI50 (UO-31): 0.641 µM (active)
- GI50 (NCI-H460): 0.0308 µM (active)
- GI50 (RXF 393): 0.265 µM (active)
- GI50 (A549): 0.198 µM (active)
- GI50 (NCI-H226): 0.365 µM (active)
- GI50 (HL-60): 0.136 µM (active)
- GI50 (NCI-H522): 0.391 µM (active)
- GI50 (K562): 0.0614 µM (active)
- GI50 (HCT-116): 0.0455 µM (active)
- GI50 (SW-620): 0.0353 µM (active)
- GI50 (SNB-75): 0.47 µM (active)
- GI50 (OVCAR-8): 0.112 µM (active)
- GI50 (M19-MEL): 0.582 µM (active)
- GI50 (HOP-92): 0.583 µM (active)
- GI50 (HCT-15): 0.123 µM
- GI50 (HCC 2998): 0.22 µM (active)
- GI50 (SNB-78): 1.13 µM (inactive)
- GI50 (MCF7): 164 nM (active)
- GI50 (SK-MEL-2): 0.658 µM (active)
- GI50 (LOX IMVI): 0.063 µM (active)
- GI50 (SNB-19): 0.256 µM (active)
- GI50 (Malme-3M): 1.16 µM (inactive)
- GI50 (A498): 1.19 µM (inactive)
- GI50 (HOP-62): 0.671 µM (active)
- GI50 (KM-20L2): 0.113 µM (active)
- GI50 (NCI-H23): 0.416 µM (active)
- GI50 (UACC-257): 0.92 µM (active)
- GI50 (EKVX): 0.526 µM (active)
- GI50 (SK-OV-3): 0.501 µM (active)
- GI50 (UACC-62): 0.729 µM (active)
- GI50 (HOP-18): 0.598 µM (active)
- GI50 (XF498): 0.807 µM (active)
- GI50 (SF-268): 0.151 µM (active)
- GI50 (MOLT-4): 0.0193 µM (active)
- GI50 (SK-MEL-5): 1.35 µM (inactive)
- GI50 (DLD-1): 0.0893 µM (active)
- GI50 (RPMI-8226): 63.8 nM (active)
- GI50 (OVCAR-3): 0.333 µM (active)
- GI50 (COLO 205): 0.357 µM (active)
- GI50 (SK-MEL-28): 0.577 µM (active)
- GI50 (OVCAR-4): 0.135 µM (active)
- GI50 (NCI/ADR-RES): 91.6 nM (active)
- GI50 (CAKI-1): 0.463 µM (active)
- GI50 (HT-29): 0.171 µM (active)
- GI50 (SF-539): 0.832 µM (active)
- GI50 (SN12C): 0.309 µM (active)
- GI50 (IGROV-1): 0.388 µM (active)

Compound: CN(C)NC(=S)NC12CC3CC(CC(C3)C1)C2
- GI50 (OVCAR-5): > 100 µM (inactive)
- GI50 (KM12): > 100 µM (inactive)
- GI50 (DMS-273): > 100 µM (inactive)
- GI50 (U-251): > 100 µM (inactive)
- GI50 (SF-295): > 100 µM (inactive)
- GI50 (LXFL 529): > 100 µM (inactive)
- GI50 (CCRF-CEM): > 100 µM (inactive)
- GI50 (UO-31): > 100 µM (inactive)
- GI50 (NCI-H460): > 100 µM (inactive)
- GI50 (RXF 393): > 100 µM (inactive)
- GI50 (TK-10): > 100 µM (inactive)
- GI50 (A549): > 100 µM (inactive)
- GI50 (NCI-H226): > 100 µM (inactive)
- GI50 (HL-60): > 100 µM (inactive)
- GI50 (NCI-H522): > 100 µM (inactive)
- GI50 (K562): > 100 µM (inactive)
- GI50 (HCT-116): > 100 µM (inactive)
- GI50 (SW-620): > 100 µM (inactive)
- GI50 (SNB-75): > 100 µM (inactive)
- GI50 (OVCAR-8): > 100 µM (inactive)
- GI50 (786-0): > 100 µM (inactive)
- GI50 (M14): > 100 µM (inactive)
- GI50 (M19-MEL): > 100 µM (inactive)
- GI50 (HOP-92): 91.2 µM (inactive)
- GI50 (HCT-15): > 100 µM
- GI50 (HCC 2998): > 100 µM (inactive)
- GI50 (SNB-78): > 100 µM (inactive)
- GI50 (SK-MEL-2): > 100 µM (inactive)
- GI50 (LOX IMVI): > 100 µM (inactive)
- GI50 (SNB-19): > 100 µM (inactive)
- GI50 (Malme-3M): > 100 µM (inactive)
- GI50 (A498): > 100 µM (inactive)
- GI50 (HOP-62): > 100 µM (inactive)
- GI50 (KM-20L2): > 100 µM (inactive)
- GI50 (NCI-H23): > 100 µM (inactive)
- GI50 (UACC-257): > 100 µM (inactive)
- GI50 (DMS-114): > 100 µM (inactive)
- GI50 (EKVX): > 100 µM (inactive)
- GI50 (SK-OV-3): > 100 µM (inactive)
- GI50 (UACC-62): > 100 µM (inactive)
- GI50 (HOP-18): > 100 µM (inactive)
- GI50 (XF498): > 100 µM (inactive)
- GI50 (SF-268): > 100 µM (inactive)
- GI50 (MOLT-4): > 100 µM (inactive)
- GI50 (SK-MEL-5): > 100 µM (inactive)
- GI50 (DLD-1): > 100 µM (inactive)
- GI50 (OVCAR-3): > 100 µM (inactive)
- GI50 (COLO 205): > 100 µM (inactive)
- GI50 (SK-MEL-28): > 100 µM (inactive)
- GI50 (OVCAR-4): > 100 µM (inactive)
- GI50 (CAKI-1): > 100 µM (inactive)
- GI50 (ACHN): > 100 µM (inactive)
- GI50 (HT-29): > 100 µM (inactive)
- GI50 (SF-539): > 100 µM (inactive)
- GI50 (SN12C): > 100 µM (inactive)
- GI50 (IGROV-1): > 100 µM (inactive)

Compound: COc1ccc2c(c1)c[n+](C)c1c3cc(OC)c(OC)cc3ccc21
- GI50 (MDA-MB-231): 1.59 µM (inactive)
- GI50 (DMS-273): 1.57 µM (inactive)
- GI50 (MDA-N): 2.5 µM (inactive)
- GI50 (U-251): 1.94 µM (inactive)
- GI50 (LXFL 529): 1.96 µM (inactive)
- GI50 (A549): 2.74 µM (inactive)
- GI50 (NCI-H522): 1.67 µM (inactive)
- GI50 (K562): 2.04 µM (inactive)
- GI50 (SW-620): 1.55 µM (inactive)
- GI50 (OVCAR-8): 1.73 µM (inactive)
- GI50 (M19-MEL): 6.44 µM (inactive)
- GI50 (HCT-15): 24.9 µM
- GI50 (SR): 1.38 µM (inactive)
- GI50 (SNB-78): 6.95 µM (inactive)
- GI50 (LOX IMVI): 1.95 µM (inactive)
- GI50 (SNB-19): 4.78 µM (inactive)
- GI50 (KM-20L2): 4.84 µM (inactive)
- GI50 (DMS-114): 1.98 µM (inactive)
- GI50 (SK-OV-3): 9.4 µM (inactive)
- GI50 (UACC-62): 11.3 µM (inactive)
- GI50 (HOP-18): 12.4 µM (inactive)
- GI50 (XF498): 4.23 µM (inactive)
- GI50 (SF-268): 2.75 µM (inactive)
- GI50 (Hs-578T): 2.23 µM (inactive)
- GI50 (DLD-1): 4.86 µM (inactive)
- GI50 (RPMI-8226): 1750 nM (inactive)
- GI50 (OVCAR-3): 4.16 µM (inactive)
- GI50 (COLO 205): 1.41 µM (inactive)
- GI50 (CAKI-1): 17.6 µM (inactive)
- GI50 (SN12C): 2.91 µM (inactive)
